# Values quoted from earlier work in patent US8529907B2, “Methods of treating ophthalmic disorders” (Nikken Sohonsha Corporation, priority 2008, dated 2013).
# Key:
# RP patients = conditions: 15,000 U/d
compound,measurement,setting,value
CC1=C(/C=C/C(C)=C\C=C\C(C)=C\C=O)C(C)(C)CCC1 [9-cis-retinal],rescue of mutant opsin P23H,mutant opsin P23H,effectively rescued
same,duration of supported rod retinal function post-treatment,Rpe65-deficient mice; early intervention,more than 6 months
same,retinal ester accumulation,Rpe65-deficient mice; early intervention,significantly attenuated
same,rod photopigment and rod physiology,"Rpe65-deficient mice; oral, within 48 h, Rpe65-deficient mice",formation of rod photopigment and dramatic improvement in rod physiology
CCCCCCCCCCCCCCCC(=O)OC/C=C(C)/C=C/C=C(C)/C=C/C1=C(C)CCCC1(C)C [Vitamin A palmitate],slowing of the progress of RP,RP patients,about 2 % per year
CC1=C(/C=C/C(C)=C/C=C/C(C)=C/C=O)C(C)(C)CCC1 [11-cis-retinal],rescue of mutant opsin P23H,mutant opsin P23H,effectively rescued
